Data on seven compounds can be found in patent US6462038B1, “Androgen receptor modulator compounds and methods” (Ligand Pharmaceuticals, Inc., priority 1999, dated 2002).

What all share (assay type): cell-based
Assay [1] deals with T1, PR (Homo sapiens, UniProt P06401).
T1 construct: expressed in transfected cells; host or cells: CV-1 cells
T1 sequence (P06401 1-933): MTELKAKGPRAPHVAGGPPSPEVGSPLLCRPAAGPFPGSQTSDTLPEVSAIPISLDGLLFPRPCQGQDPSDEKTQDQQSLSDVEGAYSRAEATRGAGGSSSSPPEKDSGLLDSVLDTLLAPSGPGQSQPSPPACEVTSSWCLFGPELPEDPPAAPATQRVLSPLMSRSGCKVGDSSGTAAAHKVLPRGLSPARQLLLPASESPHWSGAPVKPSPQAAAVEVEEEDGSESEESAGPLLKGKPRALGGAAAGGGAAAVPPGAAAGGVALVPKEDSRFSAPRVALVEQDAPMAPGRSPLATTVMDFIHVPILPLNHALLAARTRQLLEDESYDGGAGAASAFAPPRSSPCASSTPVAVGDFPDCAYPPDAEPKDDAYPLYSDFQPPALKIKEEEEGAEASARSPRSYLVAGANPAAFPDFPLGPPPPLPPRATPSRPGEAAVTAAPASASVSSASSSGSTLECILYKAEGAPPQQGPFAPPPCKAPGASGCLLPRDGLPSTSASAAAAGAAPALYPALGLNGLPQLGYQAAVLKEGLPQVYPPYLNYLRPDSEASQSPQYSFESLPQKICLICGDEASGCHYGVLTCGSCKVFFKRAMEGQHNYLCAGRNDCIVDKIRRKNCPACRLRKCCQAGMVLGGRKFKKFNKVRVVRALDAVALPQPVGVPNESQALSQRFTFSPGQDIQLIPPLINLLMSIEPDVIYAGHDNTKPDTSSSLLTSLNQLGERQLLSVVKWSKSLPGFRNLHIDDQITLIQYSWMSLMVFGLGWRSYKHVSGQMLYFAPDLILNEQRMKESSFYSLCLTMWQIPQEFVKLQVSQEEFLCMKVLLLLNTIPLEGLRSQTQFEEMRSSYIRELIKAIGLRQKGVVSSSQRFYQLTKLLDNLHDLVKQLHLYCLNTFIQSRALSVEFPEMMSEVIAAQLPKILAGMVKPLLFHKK
Put plainly: co-transfection assay, PR agonist. Here is the method: (§1) CV-1 cells (African green monkey kidney fibroblasts) were cultured in the presence of Dulbecco's Modified Eagle Medium (DMEM) supplemented with 10% charcoal resin-stripped fetal bovine serum (CH-FBS) then transferred to 96-well microtiter plates one day prior to transfection.
(§2) Three to four replicates were used for each sample.
(§3) After 40 hours, the cells were washed with PBS, lysed with a Triton X-100-based buffer and assayed for LUC and β-Gal activities using a luminometer or spectrophotometer, respectively. For each replicate, the normalized response (NR) was calculated as: […]

Assay [2] has as its target T2, GR (Homo sapiens, UniProt P04150).
T2 construct: expressed in transfected cells; host or cells: CV-1 cells
T2 sequence (P04150 1-777): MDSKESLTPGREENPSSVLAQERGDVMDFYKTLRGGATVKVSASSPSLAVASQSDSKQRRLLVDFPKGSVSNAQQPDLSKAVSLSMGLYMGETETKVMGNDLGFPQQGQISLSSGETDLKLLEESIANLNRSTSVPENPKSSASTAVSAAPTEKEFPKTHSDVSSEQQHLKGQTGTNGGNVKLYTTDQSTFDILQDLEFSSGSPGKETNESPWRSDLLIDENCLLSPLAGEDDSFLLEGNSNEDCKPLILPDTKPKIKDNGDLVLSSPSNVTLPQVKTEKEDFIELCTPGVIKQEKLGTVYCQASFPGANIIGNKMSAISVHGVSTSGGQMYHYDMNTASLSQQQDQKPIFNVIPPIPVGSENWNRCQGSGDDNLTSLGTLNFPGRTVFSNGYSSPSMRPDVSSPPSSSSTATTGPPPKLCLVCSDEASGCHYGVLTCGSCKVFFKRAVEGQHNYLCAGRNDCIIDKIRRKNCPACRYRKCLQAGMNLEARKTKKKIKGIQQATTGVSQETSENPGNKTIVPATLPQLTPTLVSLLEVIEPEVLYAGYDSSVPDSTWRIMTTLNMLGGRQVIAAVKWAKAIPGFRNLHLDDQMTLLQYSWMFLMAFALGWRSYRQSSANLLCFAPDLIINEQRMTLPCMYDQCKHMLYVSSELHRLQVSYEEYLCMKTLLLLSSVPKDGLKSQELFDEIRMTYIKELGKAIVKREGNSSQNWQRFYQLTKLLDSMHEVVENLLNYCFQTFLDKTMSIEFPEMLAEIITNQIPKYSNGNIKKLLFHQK
Put plainly: co-transfection assay, GR antagonist. Here is the method: as §1, §2, §3

The target in assay [3] is T1, PR. As to the kind of experiment: co-transfection assay, PR antagonist (in presence of progesterone). Here is the method:
as §1, §2, §3

For assay [4], the target named is T3, ER (Homo sapiens, UniProt P03372).
T3 construct: expressed in transfected cells; host or cells: CV-1 cells
T3 sequence (P03372 whole entry): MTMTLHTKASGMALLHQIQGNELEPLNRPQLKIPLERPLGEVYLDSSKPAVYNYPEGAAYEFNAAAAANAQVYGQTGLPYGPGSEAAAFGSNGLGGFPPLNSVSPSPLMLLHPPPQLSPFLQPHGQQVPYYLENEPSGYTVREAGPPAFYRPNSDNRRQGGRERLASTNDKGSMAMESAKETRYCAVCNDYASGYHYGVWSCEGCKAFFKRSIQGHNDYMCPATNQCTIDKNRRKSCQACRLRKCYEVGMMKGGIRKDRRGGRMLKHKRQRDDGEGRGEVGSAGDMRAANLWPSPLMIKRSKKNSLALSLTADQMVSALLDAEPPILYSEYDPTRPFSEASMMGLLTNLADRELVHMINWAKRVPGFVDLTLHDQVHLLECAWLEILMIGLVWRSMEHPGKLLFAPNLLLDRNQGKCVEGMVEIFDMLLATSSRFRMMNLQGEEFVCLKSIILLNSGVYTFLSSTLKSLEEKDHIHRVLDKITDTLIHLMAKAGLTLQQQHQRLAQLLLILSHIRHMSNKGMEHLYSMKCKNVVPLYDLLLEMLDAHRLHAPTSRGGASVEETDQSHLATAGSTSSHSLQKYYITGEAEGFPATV
As to the kind of experiment: co-transfection assay, ER antagonist. Here is the method: as §1, §2, §3

In assay [5] the target is T3, ER. As to the kind of experiment: co-transfection assay, ER agonist. Here is the method:
as §1, §2, §3

Assay [6] addresses T4, MR (Homo sapiens, UniProt P08235).
T4 construct: expressed in transfected cells; host or cells: CV-1 cells
T4 sequence (P08235 1-984): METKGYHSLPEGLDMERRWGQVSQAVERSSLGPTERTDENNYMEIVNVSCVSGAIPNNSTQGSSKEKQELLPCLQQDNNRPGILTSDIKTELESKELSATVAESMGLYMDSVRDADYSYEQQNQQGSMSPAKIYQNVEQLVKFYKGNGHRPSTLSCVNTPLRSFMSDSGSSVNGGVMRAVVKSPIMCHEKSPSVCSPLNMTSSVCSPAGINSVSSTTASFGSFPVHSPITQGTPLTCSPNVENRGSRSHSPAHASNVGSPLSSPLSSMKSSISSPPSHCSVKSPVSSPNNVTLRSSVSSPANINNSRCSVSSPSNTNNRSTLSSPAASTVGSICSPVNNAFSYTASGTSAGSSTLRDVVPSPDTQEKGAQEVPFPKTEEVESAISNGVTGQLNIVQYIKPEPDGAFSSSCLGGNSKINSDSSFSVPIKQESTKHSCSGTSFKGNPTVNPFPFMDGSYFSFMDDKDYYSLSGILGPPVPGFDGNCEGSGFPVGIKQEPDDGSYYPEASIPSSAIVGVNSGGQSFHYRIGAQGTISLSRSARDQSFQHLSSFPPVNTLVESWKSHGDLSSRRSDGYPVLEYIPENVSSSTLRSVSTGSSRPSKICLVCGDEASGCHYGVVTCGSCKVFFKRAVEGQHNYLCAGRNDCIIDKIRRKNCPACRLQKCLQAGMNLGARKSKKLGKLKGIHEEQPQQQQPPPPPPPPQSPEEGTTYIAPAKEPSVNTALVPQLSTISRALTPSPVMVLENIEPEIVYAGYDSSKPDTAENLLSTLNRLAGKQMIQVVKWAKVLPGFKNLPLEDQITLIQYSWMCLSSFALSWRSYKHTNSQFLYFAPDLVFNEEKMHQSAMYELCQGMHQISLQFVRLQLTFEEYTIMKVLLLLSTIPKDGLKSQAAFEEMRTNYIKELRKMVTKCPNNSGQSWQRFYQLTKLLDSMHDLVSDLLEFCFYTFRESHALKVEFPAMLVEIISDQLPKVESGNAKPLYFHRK
Put plainly: co-transfection assay, MR antagonist. Here is the method:
as §1, §2, §3

Assay [7] has as its target T5, hAR (Homo sapiens, UniProt P10275).
T5 construct: expressed in transfected cells; host or cells: CV-1 cells (African green monkey kidney fibroblasts)
T5 sequence (P10275 1-920): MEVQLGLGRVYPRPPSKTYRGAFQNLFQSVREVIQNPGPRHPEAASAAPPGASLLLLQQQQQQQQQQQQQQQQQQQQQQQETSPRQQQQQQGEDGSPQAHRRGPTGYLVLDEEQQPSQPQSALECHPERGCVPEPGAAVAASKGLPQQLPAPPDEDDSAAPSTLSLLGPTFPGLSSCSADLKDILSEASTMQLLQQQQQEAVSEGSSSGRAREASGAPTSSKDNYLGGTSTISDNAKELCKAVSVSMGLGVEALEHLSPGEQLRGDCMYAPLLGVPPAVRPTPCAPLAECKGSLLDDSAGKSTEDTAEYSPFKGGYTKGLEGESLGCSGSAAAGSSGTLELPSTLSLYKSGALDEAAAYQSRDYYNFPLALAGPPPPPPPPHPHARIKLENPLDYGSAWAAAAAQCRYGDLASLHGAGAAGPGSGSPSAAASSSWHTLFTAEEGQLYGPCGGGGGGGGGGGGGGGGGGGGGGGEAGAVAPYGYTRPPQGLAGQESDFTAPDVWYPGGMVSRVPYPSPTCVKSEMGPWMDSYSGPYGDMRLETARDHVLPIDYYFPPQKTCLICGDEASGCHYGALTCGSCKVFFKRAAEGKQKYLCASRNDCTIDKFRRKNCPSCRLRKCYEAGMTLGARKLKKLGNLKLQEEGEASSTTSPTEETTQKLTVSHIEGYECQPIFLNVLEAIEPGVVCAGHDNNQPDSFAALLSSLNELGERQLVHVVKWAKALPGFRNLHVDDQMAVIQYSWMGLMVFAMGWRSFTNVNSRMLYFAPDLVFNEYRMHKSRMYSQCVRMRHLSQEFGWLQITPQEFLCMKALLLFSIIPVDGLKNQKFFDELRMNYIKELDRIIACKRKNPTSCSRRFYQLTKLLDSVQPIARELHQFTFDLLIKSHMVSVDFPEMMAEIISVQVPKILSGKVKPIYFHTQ
Put plainly: co-transfection assay, AR agonist, CV-1 cells. Conditions: for AR Agonist CV-1 Cells Efficacy (%): relative to maximum LUC production by reference agonist.

The target in assay [8] is T5, hAR. Put plainly: co-transfection assay, AR antagonist (in presence of DHT), CV-1 cells. The note with it: for AR Antagonist CV-1 Cells Efficacy (%): hAR in CV-1 cells, maximal inhibition, DHT at EC50.

Molecules are shown by their SMILES. Read-outs that look alike come from different tables or passages of the source.

On to `CC1CN(CC(F)(F)F)c2cc3c(C(F)(F)F)cc(=O)[nH]c3cc2O1` (racemic) [Compound 114, (±)-1,2,3,6-Tetrahydro-3-methyl-1-(2,2,2-trifluoroethyl)-9-(trifluoromethyl)-7H-[1,4]oxazino[3,2-g]quinolin-7-one], for which the EC50 in assay [1] and in assay [5] was more than 10000 nM throughout. The IC50 in assay [2], in assay [3], in assay [4] and in assay [6] was more than 10000 nM in each case.

Take `CC1COc2cc3[nH]c(=O)cc(C(F)(F)F)c3cc2N1CC(F)(F)F` (racemic) [Compound 123, (±)-1,2,3,6-Tetrahydro-2-methyl-1-(2,2,2-trifluoroethyl)-9-(trifluoromethyl)-7H-[1,4]oxazino[3,2-g]quinolin-7-one]: the EC50 is more than 10000 nM in assay [1]; more than 10000 nM in assay [5]; 3.4 nM in assay [7] (AR Agonist CV-1 Cells Potency (nM), hAR in CV-1 cells); 3.4 nM in assay [7] (AR Potency Agon (nM), Table 2). The IC50 was 3160 nM in assay [2]; 2470 nM in assay [3]; more than 10000 nM in assay [4]; more than 10000 nM in assay [8]; more than 10000 nM in assay [8] (read-out: AR Potency Antag, Table 2). In addition, in assay [7] (hAR in CV-1 cells), the “AR Agonist CV-1 Cells Efficacy (%)” value was 91%. Moreover, the “AR Antagonist CV-1 Cells Efficacy (%)” value in assay [8] is “na (na = not active (i.e. efficacy of < 20 and potency of > 10,000 nM for the cotransfection assay, and Ki > 1000 nM for the binding assay))”.

In assay [7], `CC(C)CN1CCOc2cc3c(cc21)c(C(F)(F)F)cc(=O)n3C` [Compound 113, 1,2,3,6-Tetrahydro-1-isobutyl-6-methyl-9-(trifluoromethyl)-7H-[1,4]oxazino[3,2-g]quinolin-7-one] came in with an EC50 of more than 10000 nM. In addition, the “AR Agonist CV-1 Cells Efficacy (%)” value in assay [7] (hAR in CV-1 cells) was “na (na = not active (i.e. efficacy of < 20 and potency of > 10,000 nM for the cotransfection assay, and Ki > 1000 nM for the binding assay))”. In assay [8], the IC50 came out at 61 nM and the “AR Antagonist CV-1 Cells Efficacy (%)” value came to 78%.

Turning to `O=c1cc(C(F)(F)F)c2cc3c(cc2[nH]1)OCCN3` [Compound 120, 1,2,3,6-Tetrahydro-9-(trifluoromethyl)-7H-[1,4]oxazino[3,2-g]quinolin-7-one], the “AR Agonist CV-1 Cells Efficacy (%)” value in assay [7] (hAR in CV-1 cells) is “na (na = not active (i.e. efficacy of < 20 and potency of > 10,000 nM for the cotransfection assay, and Ki > 1000 nM for the binding assay))”. In assay [8], the “AR Antagonist CV-1 Cells Efficacy (%)” value was 69%.

For the compound `O=c1cc(C(F)(F)F)c2cc3c(cc2[nH]1)OCCN3Cc1ccccn1` [Compound 122, 1,2,3,6-Tetrahydro-1-(2-pyridylmethyl)-9-(trifluoromethyl)-7H-[1,4]oxazino[3,2-g]quinolin-7-one], the EC50 in assay [7] was more than 10000 nM. Further, the “AR Agonist CV-1 Cells Efficacy (%)” value in assay [7] (hAR in CV-1 cells) was “na (na = not active (i.e. efficacy of < 20 and potency of > 10,000 nM for the cotransfection assay, and Ki > 1000 nM for the binding assay))”. Further, in assay [8], the IC50 stood at 632 nM and the “AR Antagonist CV-1 Cells Efficacy (%)” value is 75%.

For the compound `C[C@]1(O)CC[C@H]2[C@@H]3CCC4=CC(=O)CC[C@]4(C)[C@@]3(F)[C@@H](O)C[C@@]21C` [Fluox, fluoxymesterone], the EC50 in assay [1] is 1210 nM. Further, the IC50 is 263 nM in assay [2], 224 nM in assay [3] and 193 nM in assay [6].

As to `CC(C)(O)C(=O)Nc1ccc([N+](=O)[O-])c(C(F)(F)F)c1` [Flut, 2-hydroxyflutamide, reference compound], the IC50 in assay [4] (Table 2, read-out: ER Potency Antag) is more than 10000 nM. Also, in assay [5] (Table 2, read-out: ER Potency Agon), the EC50 was more than 10000 nM.
